Measurements reported in patent publication EP1234878A1, “USE OF DISEASE-ASSOCIATED GENE” (Takeda Chemical Industries, Ltd., priority 1999, dated 2001).

Tested on: human CLCA1 protein, SEQ ID NO: 2 (human CLCA1 expressing CHO cells)
Experiment: Cl- ion secretion assay using human CLCA1-expressing CHO cells (MEQ fluorescence, ionomycin stimulation)
Format: cell-based
Settings: anionic transport inhibitor added at 200 µM or 10 µM (FIG. 11), room temperature for 30 minutes, then ionomycin 10 µM; Cl- ion fluorescence indicator MEQ
Procedure: Human CLCA1-expressing plasmid pcDNA-hCLCA1 shown in EXAMPLE 6 was transfected to CHO cells using Gene transfer lyo (manufactured by Wako Pure Chemical Industries, Ltd.) in accordance with the attached manual. The cells were subjected to selective culture for 10 days in MEM-α medium (manufactured by GIBCO BRL) supplemented with 1 mg/ml of neomycin (G418) (manufactured by GIBCO BRL) to obtain the cells grown as human CLCA1 expressing CHO cells. The human CLCA1 expressing CHO cells and parent CHO cells were seeded on a 96-well plate (manufactured by Packard Inc.) coated with 2 µg/ml of fibronectin (manufactured by Itoham Foods, Inc.), respectively, in a concentration of 4 x 10^4 cells/well, followed by culturing at 37°C for 24 hours under 5% CO2. After completion, the culture solution was washed once with a buffer solution containing no Cl^- ions (2.4 mM K2HPO4, 0.6 mM KH2PO4, 10 mM D-glucose, 1 mM MgSO4, 1 mM CaSO4, 135 mM NaNO3, 10 mM HEPES, pH 7.4), and 1 mM of Cl^- ion fluorescence indicator 6-methoxy-N-ethylquinolinium iodide (MEQ, manufactured by Moelcular Probes, Inc.) was added in an amount of 100 µl/well to the culture solution, followed by incubation at 37°C for further 2 hours. The culture solution was further washed twice with a Cl^- ion-containing buffer solution (2.4 mM K2HPO4, 0.6 mM KH2PO4, 10 mM D-glucose, 1 mM MgSO4, 1 mM CaSO4, 135 mM NaCl, 10 mM HEPES, pH 7.4), and then allowed to stand at room temperature for 30 minutes. Each well was replaced by the buffer solution containing no Cl^- ions and ionomycin was added to make the concentration of 10 µM. Immediately thereafter, the fluorescence intensity was measured at an excited wavelength of 355 nm and a measurement wavelength of 460 nm, usingamulti-label counter Wallac1420ARVOsx (manufactured by Amersham Pharmacia Biotech).
When stimulated with 10 µM ionomycin (manufactured by Wako Pure Chemical Industries, Inc.), the fluorescence intensity increased in human CLCA1 expressing CHO cells by about twice, as compared to the parent CHO cells (FIG. 10). […]

SMILES	increase of the fluorescence intensity by ionomycin stimulation of human CLCA1 expressing CHO cells
O=S(=O)(O)c1cc(N=C=S)ccc1C=Cc1ccc(N=C=S)cc1S(=O)(=O)O [4,4'-diisothiocyanastilbene-2,2'-disulfonic acid]	suppressed
O=C(O)c1cccnc1Nc1cccc(C(F)(F)F)c1 [niflumic acid]	suppressed
O[C@H](CS)[C@H](O)CS (racemic) [dithiothreitol]	suppressed
